The record followed here is US12122787B2, “Fused pyridone compound, and preparation method therefor and use thereof” (SHANGHAI JEMINCARE PHARMACEUTICALS CO., LTD, priority 2019, dated 2024).

As usually defined, the GI50 is the concentration giving 50% growth inhibition. A high value points to lower sensitivity of the cells. A word on the IC50: it is the concentration needed to halve the response being measured.

Common to all, as to format: cell-based
The subject of assay [1] is MIA PaCa2 cells expressing KRAS-G12C. Briefly: Growth inhibition of tumor cell line expressing KRAS-G12C (Cell Titer Glo), MIA PaCa2. To be noted: MIA-Paca2, 72 hours. Here is the method:
(§1) The ability of the compounds of the present disclosure to inhibit the growth of cells expressing KRAS-G12C was evaluated by measuring the cell viability and calculating the GI50 values.
(§2) The tumor cell line NCI-H358 (ATCC catalogue number CRL-5807) expressing KRAS-G12C was cultured in RPMI medium supplemented with 10% fetal bovine serum and penicillin/streptomycin, and the tumor cell line MIA PaCa2 (ATCC CRL-1420) expressing KRAS-G12C was cultured in DMEM medium supplemented with 10% fetal bovine serum, 2.5% horse serum, and penicillin/streptomycin.
(§3) Cells NCI-H358 and MIA-Paca2 were inoculated into black transparent bottom 384-well plate (PerkinElmer catalogue number 6007460) with cell density of 1000 and 800 respectively, and the cells were allowed to adhere to the wall overnight (8-12 hours). After the cells adhered to the wall, the experimental group was added with the compound of the present disclosure diluted 5 times the concentration of the working solution (final concentration containing 0.1% dimethyl sulfoxide, i.e. DMSO); the control group was added with the same dilution as the experimental group (final concentration containing 0.1% DMSO). After 72 hours, Cell Titer Glo reagent (Promega catalogue number G7572) was used to detect ATP content according to the instruction method to determine the amount of cell proliferation. The brief operation steps were as follows: the cell plate was taken out and kept at normal temperature for equilibrium for 30 minutes; Cell Titer Glo reagent with the same volume as the culture was added; the culture plate was placed on a shaker for shaking and cracking for 2 minutes; the culture plate was left to stand at room temperature for 10 minutes; then the light signal value was read by microplate reader EnVision (PerkinElmer).
(§4) Data from all experimental groups were used to calculate the respective percent inhibition using the DMSO group, and the GI50 was calculated using the data processing software GraphPad to analyze the inhibition rates produced by the 9 compound dose concentrations diluted at ⅓-fold ratio.
For orientation: In ATP-based viability assays light output follows the ATP content of the culture.

In assay [2] the test system is phosphorylated ERK (Thr202/Tyr204) in NCI-H358 cells expressing mutant RAS(G12C). Briefly: Inhibition of RAS-mediated signal transduction: phosphorylated ERK ELISA in NCI-H358 cells. To be noted: NCI-H358 cells, 2 hours of treatment, pERK normalized by Janus Green B, read-out: p-ERK IC50 (NCI H358).
Assay [3] relates to NCI-H358 cells expressing KRAS-G12C. Briefly: Growth inhibition of tumor cell line expressing KRAS-G12C (Cell Titer Glo), NCI-H358. Here is the method:
as §1, §2, §3, §4

The structures appear in SMILES notation. Where two headings read alike, the source gives them in different places.

`C=CC(=O)N1C[C@@H]2COc3c(c4cc(Cl)c(-c5c(O)cccc5F)c(F)c4n(-c4c(C)ccnc4C(C)C)c3=O)N2C[C@H]1C` [Compound 18B-1]: the GI50 amounted to 66 nM in assay [1] and 21 nM in assay [3] (NCI-H358, 72 hours). Also, in assay [2], the IC50 came out at 36 nM.

Turning to `C=CC(=O)N1C[C@@H]2C(=O)N(CCN(C)C)c3c(c4cc(Cl)c(-c5c(F)cccc5OC)c(F)c4n(-c4c(C)ccnc4C(C)C)c3=O)N2C[C@H]1C` (atropisomer, axis not shown) [Compound 27D], the GI50 was found to be 117 nM in assay [1] and 85 nM in assay [3] (NCI-H358, 72 hours). In addition, the IC50 in assay [2] is 124 nM.

For `C=CC(=O)N1C[C@@H]2C(=O)N(CCN(C)C)c3c(c4cc(Cl)c(-c5c(O)cccc5F)nc4n(-c4c(C)ccnc4C(C)C)c3=O)N2C[C@H]1C` [Compound 29A], the GI50 in assay [1] (Homo sapiens, MIA PaCa-2, 72 h) worked out at 67 nM; in assay [3] (Homo sapiens, NCI-H358, 72 h) it was 44 nM. Moreover, the IC50 in assay [2] (Homo sapiens, NCI-H358, 2 h) was found to be 124 nM.

Consider `C=CC(=O)N1C[C@@H]2C(=O)N(C)c3c(c4cc(F)c(-c5c(O)cccc5F)c(F)c4n(-c4c(C(C)C)ncnc4C(C)C)c3=O)N2C[C@H]1C` [Compound 20A], for which the GI50 in assay [1] (Homo sapiens, MIA PaCa-2, 72 h) was 10 nM; in assay [3] (Homo sapiens, NCI-H358, 72 h) it was 4 nM. For the same compound, the IC50 in assay [2] (Homo sapiens, NCI-H358, 2 h) stood at 4 nM.

As for `C=CC(=O)N1C[C@@H]2C(=O)N(CCN(C)C)c3c(c4cc(Cl)c(-c5c(O)cccc5F)c(F)c4n(-c4c(C)ccnc4C(C)C)c3=O)N2C[C@H]1C` (atropisomer, axis not shown) [Compound 26A], the 50% growth inhibitory concentration (GI50) in assay [1] (Homo sapiens, MIA PaCa-2, 72 h) was found to be 724 nM; in assay [3] (Homo sapiens, NCI-H358, 72 h), 152 nM. The IC50 in assay [2] (Homo sapiens, NCI-H358, 2 h) amounted to 203 nM.

With `C=CC(=O)N1C[C@@H]2CN(CCC(C)O)c3c(c4cc(F)c(-c5c(O)cccc5F)c(F)c4n(-c4c(C)ccnc4C(C)C)c3=O)N2C[C@H]1C` (stereo partly drawn) [Compound 37A], the GI50 in assay [1] (Homo sapiens, MIA PaCa-2, 72 h) stood at 392 nM; in assay [3] (Homo sapiens, NCI-H358, 72 h) it was 66 nM. Also, the IC50 in assay [2] (Homo sapiens, NCI-H358, 2 h) is 70 nM.

Regarding `C=CC(=O)N1C[C@@H]2C(=O)N(CCN(C)C)c3c(c4cc(Cl)c(-c5c(O)cccc5F)c(F)c4n(-c4c(CC)ccnc4C(C)C)c3=O)N2C[C@H]1C` (atropisomer, axis not shown) [Compound 54B-1], the GI50 in assay [1] (Homo sapiens, MIA PaCa-2, 72 h) is 6 nM; in assay [3] (Homo sapiens, NCI-H358, 72 h), 7 nM. In addition, the half-maximal inhibitory concentration (IC50) in assay [2] amounted to 12 nM.

In the case of `C=CC(=O)N1C[C@@H]2CN(CCCO)c3c(c4cc(F)c(-c5c(O)cccc5F)c(F)c4n(-c4c(C)ccnc4C(C)C)c3=O)N2C[C@H]1C` [Compound 35A], the GI50 in assay [1] (Homo sapiens, MIA PaCa-2, 72 h) stood at 2140 nM; in assay [3] (NCI-H358, 72 hours), 53 nM. Also, in assay [2], the IC50 is 68 nM.

Regarding `C=CC(=O)N1C[C@@H]2C(=O)N(C)c3c(c4cc(Cl)c(-c5c(O)cccc5F)c(F)c4n(-c4c(CC)ccnc4C(C)C)c3=O)N2C[C@H]1C` [Compound 53A-1], the GI50 came to 4 nM in assay [1] (Homo sapiens, MIA PaCa-2, 72 h) and 2 nM in assay [3] (Homo sapiens, NCI-H358, 72 h). Moreover, the IC50 in assay [2] (Homo sapiens, NCI-H358, 2 h) came out at 3 nM.

For `C=CC(=O)N1C[C@@H]2C(=O)Nc3c(c4cc(F)c(-c5c(O)cccc5F)c(F)c4n(-c4c(C)ccnc4C(C)C)c3=O)N2C[C@H]1C` [Compound 22A-1], the GI50 in assay [1] was found to be 85 nM; in assay [3] (NCI-H358, 72 hours) it was 28 nM. Also, the IC50 in assay [2] amounted to 60 nM.

With `C=CC(=O)N1CC2C(=O)N(CCN(C)C)c3c(c4cc(F)c(-c5c(O)cccc5F)c(F)c4n(-c4c(C)ccnc4C(C)C)c3=O)N2CC1C` (stereo not drawn) [Compound 24C], the concentration for 50% growth inhibition (GI50) stood at 23 nM in assay [1] and 11 nM in assay [3] (NCI-H358, 72 hours). Moreover, the IC50 in assay [2] is 12 nM.

On to `C=CC(=O)N1C[C@@H]2C(=O)N(C)c3c(c4cc(Cl)c(-c5c(F)cccc5OC)c(F)c4n(-c4c(C)ncnc4C(C)C)c3=O)N2C[C@H]1C` [Compound 50], for which the GI50 in assay [1] (Homo sapiens, MIA PaCa-2, 72 h) turned out to be 94 nM; in assay [3] (Homo sapiens, NCI-H358, 72 h), 62 nM. In addition, the IC50 in assay [2] (Homo sapiens, NCI-H358, 2 h) is 41 nM.

Take `C=CC(=O)N1C[C@@H]2C(=O)N(C)c3c(c4cc(Cl)c(-c5ccc(F)c6nc(N)sc56)nc4n(-c4c(C)ccnc4C(C)C)c3=O)N2C[C@H]1C` (single isomer, unassigned) [Compound 56B]: the GI50 in assay [1] turned out to be 25 nM; in assay [3] (NCI-H358, 72 hours), 12 nM. The IC50 in assay [2] was found to be 11 nM.

Consider `C=CC(=O)N1C[C@@H]2C(=O)N(C)c3c(c4cc(Cl)c(-c5c(O)cccc5F)c(F)c4n(-c4c(C)ncnc4C(C)C)c3=O)N2C[C@H]1C` [Compound 49A], for which the GI50 was found to be 9 nM in assay [1] (Homo sapiens, MIA PaCa-2, 72 h) and 4 nM in assay [3] (Homo sapiens, NCI-H358, 72 h). The IC50 in assay [2] (Homo sapiens, NCI-H358, 2 h) was 4 nM.

As for `C=CC(=O)N1C[C@@H]2C(=O)N(CCN(C)C)c3c(c4cc(Cl)c(-c5c(F)cccc5OC)nc4n(-c4c(C)ccnc4C(C)C)c3=O)N2C[C@H]1C` [Compound 30A], the GI50 in assay [1] (Homo sapiens, MIA PaCa-2, 72 h) is 231 nM; in assay [3] (Homo sapiens, NCI-H358, 72 h), 208 nM. For the same compound, in assay [2] (Homo sapiens, NCI-H358, 2 h), the IC50 was found to be 170 nM.

In the case of `C=CC(=O)N1C[C@@H]2COc3c(c4cc(F)c(-c5c(O)cccc5F)c(F)c4n(-c4c(C)ccnc4C(C)C)c3=O)N2C[C@H]1C` (atropisomer, axis not shown) [Compound 3B-1], the GI50 in assay [1] worked out at 166 nM; in assay [3] (NCI-H358, 72 hours), 27 nM. The IC50 in assay [2] worked out at 26 nM.

In the case of `C=CC(=O)N1C[C@@H]2C(=O)N(C)c3c(c4cc(Cl)c(-c5c(O)cccc5F)nc4n(-c4c(C)ccnc4C(C)C)c3=O)N2C[C@H]1C` [Compound 25A], the GI50 in assay [1] (Homo sapiens, MIA PaCa-2, 72 h) turned out to be 29 nM; in assay [3] (Homo sapiens, NCI-H358, 72 h), 10 nM. The IC50 in assay [2] (Homo sapiens, NCI-H358, 2 h) stood at 14 nM.

As to `C=CC(=O)N1C[C@@H]2COc3c(c4cc(Cl)c(-c5c(O)cccc5F)c(F)c4n(-c4c(C)ccnc4C(C)C)c3=O)N2C[C@H]1C` [Compound 18A-1], the GI50 in assay [1] worked out at 10 nM; in assay [3] (NCI-H358, 72 hours), 2 nM. In assay [2], the IC50 was 4 nM.

Take `C=CC(=O)N1C[C@@H]2C(=O)N(CCCO)c3c(c4cc(F)c(-c5c(O)cccc5F)c(F)c4n(-c4c(C)ccnc4C(C)C)c3=O)N2C[C@H]1C` [Compound 41A]: the GI50 in assay [1] (Homo sapiens, MIA PaCa-2, 72 h) amounted to 2240 nM; in assay [3] (Homo sapiens, NCI-H358, 72 h), 530 nM. Further, the IC50 in assay [2] (Homo sapiens, NCI-H358, 2 h) is 942 nM.

As to `C=CC(=O)N1C[C@@H]2C(=O)N(CCN(C)C)c3c(c4cc(Cl)c(-c5c(F)cccc5OC)c(F)c4n(-c4c(C)ccnc4C(C)C)c3=O)N2C[C@H]1C` (atropisomer, axis not shown) [Compound 27A], the GI50 is 152 nM in assay [1] (Homo sapiens, MIA PaCa-2, 72 h) and 147 nM in assay [3] (Homo sapiens, NCI-H358, 72 h). For the same compound, in assay [2] (Homo sapiens, NCI-H358, 2 h), the IC50 was determined as 87 nM.

In the case of `C=CC(=O)N1CC2COc3c(c4cc(Cl)c(-c5c(O)cccc5F)c(F)c4n(-c4c(C)ccnc4C(C)C)c3=O)N2CC1C` (single isomer, unassigned) [Compound 18B-2], the GI50 was found to be 172 nM in assay [1] and 149 nM in assay [3] (NCI-H358, 72 hours). Further, the IC50 in assay [2] amounted to 102 nM.

Take `C=CC(=O)N1C[C@@H]2COc3c(c4cc(Cl)c(-c5c(O)cccc5F)c(F)c4n(-c4c(C)ccnc4C(C)C)c3=O)N2C[C@H]1C` (atropisomer, axis not shown) [Compound 18B]: the GI50 in assay [1] was determined as 468 nM; in assay [3] (NCI-H358, 72 hours), 138 nM. In addition, the IC50 in assay [2] was 151 nM.

Consider `C=CC(=O)N1C[C@@H]2COc3c(c4cc(Cl)c(-c5c(O)cccc5F)c(F)c4n(C)c3=O)N2C[C@H]1C` [Compound 4A], for which the GI50 in assay [1] (Homo sapiens, MIA PaCa-2, 72 h) amounted to 2400 nM; in assay [3] (Homo sapiens, NCI-H358, 72 h), 523 nM. In addition, the IC50 in assay [2] (Homo sapiens, NCI-H358, 2 h) was 159 nM.
